Patent US10350188B2, “Use of Neu1 sialidase inhibitors in the treatment of cancer” (priority 2011, dated 2019)
pIC50: −log10 of the molar value.

Assays:
PANC-1 cells = assay: Cell viability of PANC-1 pancreatic cancer cells in culture (MTT or WST-1, 72 hrs); type: cell-based, human; conditions: for LD50 PANC-1: oseltamivir phosphate analogues (TD), WST-1, 72 hrs; for Chemo-drug LD50 / Chemo-drug sensitivity with oseltamivir phosphate (fold increase): PANC-1; for Chemo-drug LD50: MTT, 72 hrs
MiaPaCa-2 cells = assay: Cell viability of MiaPaCa-2 pancreatic cancer cells in culture (MTT or WST-1, 72 hrs); type: cell-based, human; conditions: for LD50 MiaPaCa-2: oseltamivir phosphate analogues (TD), WST-1, 72 hrs; for Chemo-drug LD50 / Chemo-drug sensitivity with oseltamivir phosphate (fold increase): MiaPaCa-2; for Chemo-drug LD50: MTT, 72 hrs
BxPC-3 cells = assay: Cell viability of BxPC-3 pancreatic cancer cells in culture (MTT or WST-1, 72 hrs); type: cell-based, human; conditions: BxPC-3; for Chemo-drug LD50: MTT, 72 hrs
Neu1 sialidase = Neu1 sialidase (Mus musculus, UniProt O35657); assay: LPS-induced Neu1 sialidase activity in live BMA macrophage cells (4-MUNANA); type: cell-based; parameters: endogenous in cells; host or cells: BMA macrophage cells; conditions: LPS-induced Neu1 sialidase activity, live BMA macrophage cells
Description: TLR-expressing BMA macrophage cells were grown on 12 mm circular glass slides in culture media containing DMEM supplemented with 10% fetal calf serum. […] Fluorescent images were taken after 2-3 minutes using epi-fluorescent microscopy (Zeiss Imager M2, 40× objective).
This recently developed assay was used to detect sialidase activity on the surface of viable cells. […] The inhibitory potency of a series of amide-linked C9 modified DANA (2-deoxy-2,3-dehydro-D-N-acetylneuraminic add) analogues on lipopolysaccharide (LPS)-induced Neu1 sialidase activity was assessed in live BMA macrophage cells.

[1] = system: MiaPaCa-2-eGFP pancreatic cancer cells implanted in RAG2/Cγ double mutant Balbc xenograft mice; assay: MiaPaCa-2-eGFP pancreatic cancer xenograft in RAG2/Cγ double mutant Balbc mice; type: in vivo, mouse; conditions: for Liver metastasis percent inhibition: vs untreated day 51
Description: Tumour measurements were taken twice a week.
MiaPaCa-2-eGFP pancreatic cancer cells at 1.5×10^6 in 0.2 mL were implanted subcutaneously in the right back flank of these mice. Each mouse in the study was identified by an ear punch number. Twice a week each mouse following implantation of the cancer cells was monitored for tumour volume growth (length and width) at the site of implantation, body weights, and body condition scoring. Scoring the body condition of rodents is a non-invasive method for assessing health and establishing endpoints for adults where body weight is not a viable monitoring tool, such as with tumour models. Body condition scores (BC) range from 1(emaciation) to 5 (obesity). An anticipated BCS of 2—under conditioned—or lower, requires justification in the protocol. Scores are determined by frequent visual and hands-on examination of each animal. The hands-on evaluation is done by gently holding the mouse by the base of the tail and passing a finger over the sacroiliac bones. The findings are matched to the descriptions and diagrams of BC ranges to determine a score. Scores are documented for each animal.

[2] = co-treatment oseltamivir phosphate 730 μM
[3] = co-treatment oseltamivir phosphate 1460 μM
[4] = chemo-drug + oseltamivir phosphate 10 mg/kg daily, Altima day 70, Abraxane day […]
[5] = chemo-drug alone, Altima 100 mg/kg day 70, Abraxane 200 mg/kg day 87
[6] = day 48, chemo-drug (alimta 100, abraxane 200 mg/kg) + oseltamivir phosphate 10 mg/kg daily i.p.
[7] = day 48, chemo-drug alone (alimta 100 mg/kg, abraxane 200 mg/kg i.p.)
[8] = day 63, chemo-drug (alimta 100, abraxane 200 mg/kg) + oseltamivir phosphate 10 mg/kg daily
[9] = day 63, chemo-drug alone (alimta 100 mg/kg, abraxane 200 mg/kg)
[10] = day 62, tamoxifen 0.1 mg/kg alone or with oseltamivir phosphate 100 mg/kg daily
[11] = day 66, tamoxifen 0.1 mg/kg alone or with oseltamivir phosphate 100 mg/kg daily

## CC(=O)N[C@@H]1CC[C@@](O)(C(=O)[O-])[C@H]2OC(C)(C)O[C@@H]12.[Na+]
PANC-1 cells
  LD50 PANC-1: >1000 µM
MiaPaCa-2 cells
  LD50 MiaPaCa-2: 2.1 µM

## CC(=O)N[C@H]1[C@@H]2OC(C)(C)O[C@@H]2C(C(=O)[O-])=C[C@H]1O.[Na+]
PANC-1 cells
  LD50 PANC-1: 349 µM
MiaPaCa-2 cells
  LD50 MiaPaCa-2: 2.8 µM

## O=c1[nH]cc(F)c(=O)[nH]1 [5-fluoruracil, Fluorouracil]
BxPC-3 cells; [2]
  Chemo-drug LD50: 0.78 µM
BxPC-3 cells; [3]
  Chemo-drug LD50: 0.078 µM
BxPC-3 cells; oseltamivir phosphate 0 μM
  Chemo-drug LD50: 12.5 µM
BxPC-3 cells; oseltamivir phosphate 730 μM
  Chemo-drug sensitivity with oseltamivir phosphate (fold increase): 16 fold increase
BxPC-3 cells; oseltamivir phosphate 1460 μM
  Chemo-drug sensitivity with oseltamivir phosphate (fold increase): 160 fold increase
PANC-1 cells; [2]
  Chemo-drug LD50: 0.8 µM
PANC-1 cells; [3]
  Chemo-drug LD50: 0.078 µM
PANC-1 cells; oseltamivir phosphate 0 μM
  Chemo-drug LD50: 3.1 µM
PANC-1 cells; oseltamivir phosphate 730 μM
  Chemo-drug sensitivity with oseltamivir phosphate (fold increase): 4 fold increase
PANC-1 cells; oseltamivir phosphate 1460 μM
  Chemo-drug sensitivity with oseltamivir phosphate (fold increase): 40 fold increase
MiaPaCa-2 cells; [2]
  Chemo-drug LD50: 0.6 µM
MiaPaCa-2 cells; [3]
  Chemo-drug LD50: 0.078 µM
MiaPaCa-2 cells; oseltamivir phosphate 0 μM
  Chemo-drug LD50: 2.20 µM
MiaPaCa-2 cells; oseltamivir phosphate 730 μM
  Chemo-drug sensitivity with oseltamivir phosphate (fold increase): 4 fold increase
MiaPaCa-2 cells; oseltamivir phosphate 1460 μM
  Chemo-drug sensitivity with oseltamivir phosphate (fold increase): 28 fold increase

## CCOC1C(C(=O)[O-])=C[C@@H](O)[C@@H](NC(C)=O)[C@@H]1O.[Na+] (stereo partly shown) [A1, Sodium; 4-acetylamino-6-ethoxy-3,5-dihydroxy-cyclohex-1-enecarboxylate]
PANC-1 cells
  LD50 PANC-1: 848 µM
MiaPaCa-2 cells
  LD50 MiaPaCa-2: 132 µM

## CC(=O)N[C@H]1[C@H](O)C=C(C(=O)[O-])C[C@@H]1N.[Na+] [A2, Sodium; 4-acetylamino-5-amino-3-hydroxy-cyclohex-1-enecarboxylate]
PANC-1 cells
  LD50 PANC-1: 0.01 µM
MiaPaCa-2 cells
  LD50 MiaPaCa-2: 1.97 µM

## CC(=O)N[C@@H]1/C(=N/O)C=C(C(=O)[O-])[C@H]2OC(C)(C)O[C@H]21.[Na+] [A5, Sodium; 7-acetylamino-6-hydroxyimino-2,2-dimethyl-3a,6,7,7a-tetrahydro-benzo[1,3]dioxole-4-carboxylate]
PANC-1 cells
  LD50 PANC-1: 3 µM
MiaPaCa-2 cells
  LD50 MiaPaCa-2: 24 µM

## CCC(CC)O[C@@H]1C=C(C(=O)[O-])[C@H]2OC(C)(C)O[C@H]2[C@H]1NC(C)=O.[Na+] [A6, Sodium; 7-acetylamino-6-(1-ethyl-propoxy)-2,2-dimethyl-3a,6,7,7a-tetrahydro-benzo[1,3]dioxole-4-carboxylate]
PANC-1 cells
  LD50 PANC-1: >2000 µM
MiaPaCa-2 cells
  LD50 MiaPaCa-2: >2000 µM

## CCCC(=O)NC[C@H](O)[C@H](O)C1OC(C(=O)O)=CC(O)[C@H]1NC(C)=O (stereo partly shown) [B1]
Neu1 sialidase
  pIC50: 7.86

## CCC(C)C(=O)NC[C@H](O)[C@H](O)C1OC(C(=O)O)=CC(O)[C@H]1NC(C)=O (stereo partly shown) [B2]
Neu1 sialidase
  pIC50: 4.53

## CC(=O)N[C@@H]1C(O)C=C(C(=O)O)OC1[C@@H](O)[C@@H](O)CNC(=O)C1CCCCC1 (stereo partly shown) [B3]
Neu1 sialidase
  pIC50: 8.41

## CC(=O)NC[C@H](O)[C@H](O)C1OC(C(=O)O)=CC(O)[C@H]1NC(C)=O (stereo partly shown) [B4]
Neu1 sialidase
  pIC50: 5.53

## CCCCC(=O)NC[C@H](O)[C@H](O)C1OC(C(=O)O)=CC(O)[C@H]1NC(C)=O (stereo partly shown) [B5]
Neu1 sialidase
  pIC50: 5.84

## CC(=O)N[C@@H]1C(O)C=C(C(=O)O)OC1[C@@H](O)[C@@H](O)CNC(=O)C1CCCC1 (stereo partly shown) [B6]
Neu1 sialidase
  pIC50: 4.12

## CC(=O)N[C@@H]1C(O)C=C(C(=O)O)OC1[C@@H](O)[C@@H](O)CNC(=O)C(C)C (stereo partly shown) [B7]
Neu1 sialidase
  pIC50: 3.17

## CCC(CC)C(=O)NC[C@H](O)[C@H](O)C1OC(C(=O)O)=CC(O)[C@H]1NC(C)=O (stereo partly shown) [B8]
Neu1 sialidase
  pIC50: 2.98

## CC(=O)N[C@@H]1C(O)C=C(C(=O)O)OC1[C@@H](O)[C@@H](O)CNC(=O)C1CC1 (stereo partly shown) [B9]
Neu1 sialidase
  pIC50: 2.95

## CC(=O)N[C@@H]1C(O)C=C(C(=O)O)OC1[C@@H](O)[C@@H](O)CNC(=O)C(C)(C)C (stereo partly shown) [B10]
Neu1 sialidase
  pIC50: 3.39

## Nc1nc2[nH]cc(CCc3ccc(C(=O)N[C@@H](CCC(=O)O)C(=O)O)cc3)c2c(=O)[nH]1 [alimta, Pemetrexed]
[1]; chemo-drug (Alimta 100, Abraxane 200 mg/kg) + oseltamivir phosphate 10 mg/kg daily, untreated control day 51
  Survival of tumour bearing mice: 70 days
[1]; chemo-drug + oseltamivir phosphate 10 mg/kg daily, Altima 100 mg/kg day 70, Abraxane 200 mg/kg day […]
  Liver Metastasis (avg no. nodules): 3
[1]; [4]
  Metastases (size, mm): 0.2-0.5 mm
  Liver metastasis percent inhibition: 91%
[1]; [5]
  Liver Metastasis (avg no. nodules): 5
  Metastases (size, mm): 0.2-1.0 mm
  Liver metastasis percent inhibition: 85%
[1]; chemo-drug monotherapy (Alimta 100 mg/kg, Abraxane 200 mg/kg), untreated control day 51
  Survival of tumour bearing mice: 70 days
[1]; [6]
  % Inhibition To untreated: 77%
  Tumour volume: 189 mm^3
[1]; day 48, chemo-drug (alimta 100, abraxane 200 mg/kg) + oseltamivir phosphate 10 mg/kg daily i.p., listed as Almita
  % Inhibition To untreated: 77%
[1]; [7]
  % Inhibition To untreated: 72%
  Tumour volume: 225 mm^3
[1]; [8]
  % Inhibition To untreated: 3%
  Tumour volume: 787 mm^3
[1]; [9]
  % Inhibition To untreated: 40%
  Tumour volume: 482 mm^3

## CC/C(=C(\c1ccccc1)c1ccc(OCCN(C)C)cc1)c1ccccc1 [tamoxifen, Tamoxifen]
BxPC-3 cells; [2]
  Chemo-drug LD50: 3 µM
BxPC-3 cells; [3]
  Chemo-drug LD50: 0.078 µM
BxPC-3 cells; oseltamivir phosphate 0 μM
  Chemo-drug LD50: 9 µM
BxPC-3 cells; oseltamivir phosphate 730 μM
  Chemo-drug sensitivity with oseltamivir phosphate (fold increase): 3 fold increase
BxPC-3 cells; oseltamivir phosphate 1460 μM
  Chemo-drug sensitivity with oseltamivir phosphate (fold increase): 115 fold increase
PANC-1 cells; [2]
  Chemo-drug LD50: 0.8 µM
PANC-1 cells; [3]
  Chemo-drug LD50: 0.078 µM
PANC-1 cells; oseltamivir phosphate 0 μM
  Chemo-drug LD50: 12.5 µM
PANC-1 cells; oseltamivir phosphate 730 μM
  Chemo-drug sensitivity with oseltamivir phosphate (fold increase): 16 fold increase
PANC-1 cells; oseltamivir phosphate 1460 μM
  Chemo-drug sensitivity with oseltamivir phosphate (fold increase): 160 fold increase
[1]; day 59, tamoxifen 0.1 mg/kg alone or with oseltamivir phosphate 100 mg/kg daily
  % Inhibition To untreated: 57%
[1]; day 59, tamoxifen 0.1 mg/kg i.p. alone or with oseltamivir phosphate 100 mg/kg i.p. daily
  Tumour volume: 960 ± 208 (4) mm^3
[1]; [10]
  % Inhibition To untreated: 21%
  Tumour volume: 1738 ± 328 (4) mm^3
[1]; [11]
  % Inhibition To untreated: 0%
  Tumour volume: 2650 ± 360 (3) mm^3
[1]; tamoxifen 0.1 mg/kg alone or with oseltamivir phosphate 100 mg/kg daily, untreated control day 60
  Survival of tumour bearing mice: 66 days
MiaPaCa-2 cells; [2]
  Chemo-drug LD50: 0.8 µM
MiaPaCa-2 cells; [3]
  Chemo-drug LD50: 0.078 µM
MiaPaCa-2 cells; oseltamivir phosphate 0 μM
  Chemo-drug LD50: 7.0 µM
MiaPaCa-2 cells; oseltamivir phosphate 730 μM
  Chemo-drug sensitivity with oseltamivir phosphate (fold increase): 9 fold increase
MiaPaCa-2 cells; oseltamivir phosphate 1460 μM
  Chemo-drug sensitivity with oseltamivir phosphate (fold increase): 90 fold increase
